According to patent US8586582B2, “PI3K/mTOR kinase inhibitors” (Xcovery Holding Company, LLC, priority 2008, dated 2013):

Target: T1, mTOR kinase (Homo sapiens, UniProt P42345)
T1 construct: purchased Invitrogen Corp. (Madison, Wis., USA)
Assay: Z'-LYTE biochemical assay for mTOR (Invitrogen)
Procedure: The Z′-LYTE® biochemical assay for mTOR
The mTOR kinase activity was assessed using the Z′-LYTE® biochemical assay of Invitrogen Corp. (Madison, Wis., USA).

T1 sequence (P42345 1360-2549 limits assumed): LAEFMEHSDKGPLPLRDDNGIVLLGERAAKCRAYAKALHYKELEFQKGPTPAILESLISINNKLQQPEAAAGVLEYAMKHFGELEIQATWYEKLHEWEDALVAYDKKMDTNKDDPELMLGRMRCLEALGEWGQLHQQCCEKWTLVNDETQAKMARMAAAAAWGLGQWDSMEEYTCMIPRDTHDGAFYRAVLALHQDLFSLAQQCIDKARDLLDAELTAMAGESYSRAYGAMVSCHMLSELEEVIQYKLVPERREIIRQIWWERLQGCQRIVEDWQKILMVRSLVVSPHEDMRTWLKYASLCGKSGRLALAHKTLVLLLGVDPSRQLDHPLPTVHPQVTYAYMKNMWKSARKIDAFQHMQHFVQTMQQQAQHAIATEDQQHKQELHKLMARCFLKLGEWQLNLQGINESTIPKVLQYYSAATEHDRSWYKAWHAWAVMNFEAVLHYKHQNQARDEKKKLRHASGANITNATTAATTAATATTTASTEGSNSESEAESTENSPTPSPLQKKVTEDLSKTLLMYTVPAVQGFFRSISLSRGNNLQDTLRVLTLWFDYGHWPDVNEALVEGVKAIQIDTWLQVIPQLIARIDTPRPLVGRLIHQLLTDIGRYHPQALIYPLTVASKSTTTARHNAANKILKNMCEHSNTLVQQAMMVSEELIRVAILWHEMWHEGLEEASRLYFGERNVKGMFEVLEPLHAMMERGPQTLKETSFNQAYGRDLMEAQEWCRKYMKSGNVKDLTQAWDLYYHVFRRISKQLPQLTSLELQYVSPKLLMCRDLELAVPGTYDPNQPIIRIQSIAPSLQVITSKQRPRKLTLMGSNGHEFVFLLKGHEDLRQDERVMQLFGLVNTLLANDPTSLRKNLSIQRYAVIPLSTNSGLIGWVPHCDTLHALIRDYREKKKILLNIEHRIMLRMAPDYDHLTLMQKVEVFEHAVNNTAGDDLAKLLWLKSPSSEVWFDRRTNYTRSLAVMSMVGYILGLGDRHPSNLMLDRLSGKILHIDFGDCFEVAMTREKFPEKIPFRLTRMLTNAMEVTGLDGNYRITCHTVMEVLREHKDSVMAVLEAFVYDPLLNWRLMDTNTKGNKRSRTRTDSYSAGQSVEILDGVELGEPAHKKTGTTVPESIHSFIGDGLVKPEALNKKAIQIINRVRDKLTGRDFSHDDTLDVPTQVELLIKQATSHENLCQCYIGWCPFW

IC50	Compound
< 1000 nM	Nc1ncc(-c2nc(N3CCOCC3)nc3c2cnn3C2CCOCC2)cn1 [Example 1, 5-(1-(2H-3,4,5,6-tetrahydropyran-4-yl)-6-morpholin-4-ylpyrazolo[4,5-e]pyrimidin-4-yl)pyrimidine-2-ylamine]
< 1000 nM	CN1CCN(C(=O)N2CCC(n3ncc4c(-c5cnc(N)nc5)nc(N5CCOCC5)nc43)CC2)CC1 [Example 4, 4-[4-(2-aminopyrimidin-5-yl)-6-morpholin-4-ylpyrazolo[5,4-d]pyrimidinyl]piperidyl 4-methylpiperazinyl ketone]
